We go through 1 molecule from US6720008B2, “Composition and method for the encapsulation of water-soluble molecules into nanoparticles” (PR Pharmaceuticals, Inc., priority 2002, dated 2004).

Molecules are shown by their SMILES.

This data set can be described thus: Solubility of eosin in oil and organic solvent. The format is physicochemical. The procedure:
A water/oil microemulsion was prepared as follows: 1.0 ml isopropyl myristate was added to 1.4 ml of a surfactant mixture consisting of polyoxyethylene sorbitan monooleate (Tween 80): sorbitan monolaurate (Span 20): ethanol in a 45:30:25 volume ratio. Next, 0.6 ml of a 6% (w/v) eosin Y solution was added and the mixture briefly vortexed until an optically clear, single phase solution resulted (it was confirmed that eosin was not soluble in the oil or the ethyl acetate prior to formulation of the microemulsion nanocapsules).
A water/oil microemulsion was prepared by adding 0.5 ml hexadecane to a surfactant mixture consisting of polyoxyethylene sorbitan monooleate (Tween 80): sorbitan monolaurate (Span 20): ethanol in a 45:30:25 volume ratio. To that mixture, 0.35 ml of a 6% (w/v) eosin Y solution was added. […] Nanoparticles were formed and the eosin encapsulation was measured as described in Example 1. The amount of eosin incorporated into nanocapsules was 98% of the initial quantity added.

On to `O=C1OC2(c3ccccc31)c1cc(Br)c(O)c(Br)c1Oc1c2cc(Br)c(O)c1Br` [eosin, eosin Y], for which the “solubility of eosin in hexadecane” value (conditions of Example 2) is “not to be soluble”. Further, the “solubility of eosin in the oil or the ethyl acetate” value (oil = isopropyl myristate, prior to formulation of the microemulsion nanocapsules) is “not soluble”.
